Assay results taken from ChEMBL document CHEMBL5625277, “Systematical mutational analysis of teriparatide on anti-osteoporosis activity by alanine scanning” (Bioorg Med Chem Lett, 2024).

Assay: Cytotoxicity in pre-osteoblasts (unknown origin) assessed as cell death upto 5 uM by CCK8 assay
Assay type: toxicity, cell-based
Settings: pre-osteoblast

Structure (SMILES)	Activity
CSCC[C@H](NC(=O)[C@H](CC(C)C)NC(=O)[C@H](CCC(N)=O)NC(=O)[C@H](C)NC(=O)[C@H](CCC(=O)O)NC(=O)[C@H](CO)NC(=O)[C@@H](NC(=O)[C@H](CO)NC(C)=O)C(C)C)C(=O)N[C@@H](Cc1cnc[nH]1)C(=O)N[C@@H](CC(N)=O)C(=O)N[C@@H](CC(C)C)C(=O)NCC(=O)N[C@@H](CCCCN)C(=O)N[C@@H](Cc1cnc[nH]1)C(=O)N[C@@H](CC(C)C)C(=O)N[C@@H](CC(N)=O)C(=O)N[C@@H](CO)C(=O)N[C@@H](CCSC)C(=O)N[C@@H](CCC(=O)O)C(=O)N[C@@H](CCCNC(=N)N)C(=O)N[C@H](C(=O)N[C@@H](CCC(=O)O)C(=O)N[C@@H](Cc1c[nH]c2ccccc12)C(=O)N[C@@H](CC(C)C)C(=O)N[C@@H](CCCNC(=N)N)C(=O)N[C@@H](CCCCN)C(=O)N[C@@H](CCCCN)C(=O)N[C@@H](CC(C)C)C(=O)N[C@@H](CCC(N)=O)C(=O)N[C@@H](CC(=O)O)C(=O)N[C@H](C(=O)N[C@@H](Cc1cnc[nH]1)C(=O)N[C@@H](CC(N)=O)C(=O)N[C@@H](Cc1ccccc1)C(N)=O)C(C)C)C(C)C	Non-Toxic
CC[C@H](C)[C@H](NC(=O)[C@H](CCC(=O)O)NC(=O)[C@H](CO)NC(=O)[C@@H](NC(=O)[C@H](CO)NC(C)=O)C(C)C)C(=O)N[C@@H](CCC(N)=O)C(=O)N[C@@H](CC(C)C)C(=O)N[C@@H](CCSC)C(=O)N[C@@H](Cc1cnc[nH]1)C(=O)N[C@@H](CC(N)=O)C(=O)N[C@@H](CC(C)C)C(=O)NCC(=O)N[C@@H](CCCCN)C(=O)N[C@@H](Cc1cnc[nH]1)C(=O)N[C@@H](CC(C)C)C(=O)N[C@@H](CC(N)=O)C(=O)N[C@@H](CO)C(=O)N[C@@H](CCSC)C(=O)N[C@@H](CCC(=O)O)C(=O)N[C@@H](CCCNC(=N)N)C(=O)N[C@H](C(=O)N[C@@H](C)C(=O)N[C@@H](Cc1c[nH]c2ccccc12)C(=O)N[C@@H](CC(C)C)C(=O)N[C@@H](CCCNC(=N)N)C(=O)N[C@@H](CCCCN)C(=O)N[C@@H](CCCCN)C(=O)N[C@@H](CC(C)C)C(=O)N[C@@H](CCC(N)=O)C(=O)N[C@@H](CC(=O)O)C(=O)N[C@H](C(=O)N[C@@H](Cc1cnc[nH]1)C(=O)N[C@@H](CC(N)=O)C(=O)N[C@@H](Cc1ccccc1)C(N)=O)C(C)C)C(C)C	Non-Toxic
CC[C@H](C)[C@H](NC(=O)[C@H](CCC(=O)O)NC(=O)[C@H](CO)NC(=O)[C@@H](NC(=O)[C@H](CO)NC(C)=O)C(C)C)C(=O)N[C@@H](CCC(N)=O)C(=O)N[C@@H](CC(C)C)C(=O)N[C@@H](CCSC)C(=O)N[C@@H](Cc1cnc[nH]1)C(=O)N[C@@H](CC(N)=O)C(=O)N[C@@H](CC(C)C)C(=O)NCC(=O)N[C@@H](CCCCN)C(=O)N[C@@H](Cc1cnc[nH]1)C(=O)N[C@@H](CC(C)C)C(=O)N[C@@H](CC(N)=O)C(=O)N[C@@H](CO)C(=O)N[C@@H](CCSC)C(=O)N[C@@H](CCC(=O)O)C(=O)N[C@@H](C)C(=O)N[C@H](C(=O)N[C@@H](CCC(=O)O)C(=O)N[C@@H](Cc1c[nH]c2ccccc12)C(=O)N[C@@H](CC(C)C)C(=O)N[C@@H](CCCNC(=N)N)C(=O)N[C@@H](CCCCN)C(=O)N[C@@H](CCCCN)C(=O)N[C@@H](CC(C)C)C(=O)N[C@@H](CCC(N)=O)C(=O)N[C@@H](CC(=O)O)C(=O)N[C@H](C(=O)N[C@@H](Cc1cnc[nH]1)C(=O)N[C@@H](CC(N)=O)C(=O)N[C@@H](Cc1ccccc1)C(N)=O)C(C)C)C(C)C	Non-Toxic
